Measured values from patent US12521393B2, “Cytotoxicity targeting chimeras for CCR2-expressing cells” (GLAXOSMITHKLINE INTELLECTUAL PROPERTY DEVELOPMENT LIMITED, priority 2021, dated 2026).

Assays:
[1] = test system: CCR2 expressing cells (CD11b+Ly6c+Hi) in peripheral blood; test: In vivo depletion assay, flow cytometry of peripheral blood (Example 201); parameters: species or system human CCR2 knock-in mice (C57 background); conditions: hCCR2 knock-in mice, IV 0.1 mpk compound + 10 mpk anti-cotinine antibody (SEQ ID NO: 13/14), peripheral blood at 48 hr
Outline: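 Flow cytometry of blood collected at study termination quantified percent depletion of CD11b+Ly6c+Hi cells and CCR2 expression, using surface markers CD45, CD3, CD11b, Ly6C, human CCR2 after Fc block, with 7AAD viability stain. Compound given in saline:DMSO:PBS formulation, optionally combined with anti-cotinine antibody, incubated 30 min before administration.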

[2] = molecular target: anti-cotinine antibody (SEQ ID NO: 11/12, rabbit variable region with human IgG1 Fc DE mutation); test: SPR binding of anti-cotinine antibody to ARM compounds, Biacore T200, 37° C. (Example 202); conditions: SPR Biacore T200, 37° C., pH 7.4, antibody SEQ ID NO: 11/12 captured on protein A; Kd in molar
Outline: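 Run at 37 °C in 10 mM HEPES pH 7.4, 150 mM NaCl, 0.005% P20, 1% DMSO, with compounds titrated from 200 nM (five 3-fold steps) over protein A–captured antibody. A 1:1 kinetic model on double-referenced data gave rate constants, Kd as koff/kon and residence time 1/koff; results as pKd, run-averaged.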

[3] = molecular target: human alpha1 nicotinic acetylcholine (nACh) receptor (Homo sapiens, UniProt P02708); test: Nicotinic acetylcholine receptor antagonism assay, IONFlux automated patch clamp (Example 203); type: cell-based; conditions: for IC50: antagonism of ACh-stimulated human alpha1 nAChR current, patch clamp; for Emax at 100 µM: maximum percentage antagonism at maximum concentration tested 100 μM; for Emax at 10 µM: maximum percentage antagonism at maximum concentration tested 10 μM
Outline: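 Cells expressing human α1 nAChR were incubated with a compound dose response (top 10 μM or 100 μM), then stimulated with ACh (10 mM), and peak current was read by automated patch clamp. % inhibition was taken against ACh-alone control, corrected for vehicle and run-down, and fit non-linearly for IC50; runs were averaged.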

Chain of human alpha1 nicotinic acetylcholine (nACh) receptor (P02708 21-457): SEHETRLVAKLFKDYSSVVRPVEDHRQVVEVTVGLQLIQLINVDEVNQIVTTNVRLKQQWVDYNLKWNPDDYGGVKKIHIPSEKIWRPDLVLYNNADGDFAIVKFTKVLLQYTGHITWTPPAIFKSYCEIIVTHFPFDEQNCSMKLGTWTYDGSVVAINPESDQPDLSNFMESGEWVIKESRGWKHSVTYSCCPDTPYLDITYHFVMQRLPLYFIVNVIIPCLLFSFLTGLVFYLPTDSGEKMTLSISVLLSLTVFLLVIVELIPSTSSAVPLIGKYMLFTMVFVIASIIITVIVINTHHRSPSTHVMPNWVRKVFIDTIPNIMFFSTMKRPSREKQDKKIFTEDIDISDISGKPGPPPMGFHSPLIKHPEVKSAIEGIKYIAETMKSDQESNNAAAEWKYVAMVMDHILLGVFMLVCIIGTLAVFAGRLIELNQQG
Chain of human alpha1 nicotinic acetylcholine (nACh) receptor (P11230 24-501 partner): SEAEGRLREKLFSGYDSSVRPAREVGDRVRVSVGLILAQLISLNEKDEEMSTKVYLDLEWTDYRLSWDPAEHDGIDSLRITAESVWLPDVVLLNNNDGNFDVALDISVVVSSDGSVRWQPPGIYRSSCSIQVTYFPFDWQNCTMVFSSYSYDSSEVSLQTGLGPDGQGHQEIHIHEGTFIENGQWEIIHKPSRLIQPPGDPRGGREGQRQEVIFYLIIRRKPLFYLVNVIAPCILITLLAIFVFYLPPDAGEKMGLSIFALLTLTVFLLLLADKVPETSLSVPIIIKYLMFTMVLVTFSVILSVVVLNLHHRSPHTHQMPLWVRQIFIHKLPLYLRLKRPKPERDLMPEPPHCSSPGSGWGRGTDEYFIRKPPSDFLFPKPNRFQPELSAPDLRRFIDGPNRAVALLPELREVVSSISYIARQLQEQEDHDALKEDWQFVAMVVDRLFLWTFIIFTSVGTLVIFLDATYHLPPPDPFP
Chain of human alpha1 nicotinic acetylcholine (nACh) receptor (Q07001 22-517 partner): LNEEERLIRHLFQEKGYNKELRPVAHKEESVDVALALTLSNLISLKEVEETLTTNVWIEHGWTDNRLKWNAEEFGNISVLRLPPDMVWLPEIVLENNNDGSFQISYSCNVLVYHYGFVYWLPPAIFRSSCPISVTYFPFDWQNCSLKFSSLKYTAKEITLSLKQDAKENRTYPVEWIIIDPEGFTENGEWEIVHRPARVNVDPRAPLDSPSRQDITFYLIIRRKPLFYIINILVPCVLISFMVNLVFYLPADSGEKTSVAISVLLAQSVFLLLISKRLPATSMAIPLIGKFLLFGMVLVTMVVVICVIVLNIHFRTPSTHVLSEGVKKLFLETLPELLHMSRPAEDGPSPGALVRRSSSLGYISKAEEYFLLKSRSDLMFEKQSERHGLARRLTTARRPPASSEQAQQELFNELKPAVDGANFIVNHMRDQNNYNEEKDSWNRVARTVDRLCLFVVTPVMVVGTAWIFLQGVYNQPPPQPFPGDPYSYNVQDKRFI

Compound	% Depletion of CCR2 expressing cells [1]	pKd of Antibody for ARM Compound of Formula (I) [2]	IC50 [3]	Emax at 100 µM ([3]; read-out: Maximum Response)	Emax at 33.33 µM ([3]; maximum percentage antagonism at maximum concentration tested 33.33 μM, read-out: Maximum Response)	Emax at 10 µM ([3]; read-out: Maximum Response)
CC(C)N(C)[C@@H]1CC[C@H](N2CC[C@H](Nc3ncnc4ccc(C(F)(F)F)cc34)C2=O)[C@H](NC(=O)[C@H]2CC[C@H](NC(=O)CCCO[C@H]3CC[C@H](OCCNC(=O)[C@H]4CC(=O)N(C)[C@@H]4c4cccnc4)CC3)CC2)C1 [Example 1, (2S,3S)-N-(2-(((1R,4S)-4-(4-(((1R,4R)-4-(((1R,2S,5R)-5-(Isopropyl(methyl)amino)-2-((S)-2-oxo-3-((6-(trifluoromethyl)quinazolin-4-yl)amino)pyrrolidin-1-yl)cyclohexyl)carbamoyl)cyclohexyl)amino)-4-oxobutoxy)cyclohexyl)oxy)ethyl)-1-methyl-5-oxo-2-(pyridin-3-yl)pyrrolidine-3-carboxamide]	88.5%	9.654	84.6 µM	25.6%	–	–
CC(C)N(C)[C@@H]1CC[C@H](N2CC[C@H](Nc3ncnc4ccc(C(F)(F)F)cc34)C2=O)[C@H](NC(=O)[C@H]2CC[C@@H](NC(=O)CCCO[C@H]3CC[C@H](OCCNC(=O)[C@H]4CC(=O)N(C)[C@@H]4c4cccnc4)CC3)CC2)C1 [Example 5, (2S,3S)-N-(2-(((1R,4S)-4-(4-(((1S,4S)-4-(((1R,2S,5R)-5-(Isopropyl(methyl)amino)-2-((S)-2-oxo-3-((6-(trifluoromethyl)quinazolin-4-yl)amino)pyrrolidin-1-yl)cyclohexyl)carbamoyl)cyclohexyl)amino)-4-oxobutoxy)cyclohexyl)oxy)ethyl)-1-methyl-5-oxo-2-(pyridin-3-yl)pyrrolidine-3-carboxamide]	91.05%	9.19	≥ 100 µM	40.5%	–	–
CC(C)N(C)[C@@H]1CC[C@H](N2CC[C@H](Nc3ncnc4ccc(C(F)(F)F)cc34)C2=O)[C@H](NC(=O)CCOCCNC(=O)CCCO[C@H]2CC[C@H](OCCNC(=O)[C@H]3CC(=O)N(C)[C@@H]3c3cccnc3)CC2)C1 [Example 7, (2S,3S)-N-(2-(((1r,4S)-4-(4-((2-(3-(((1R,2S,5R)-5-(Isopropyl(methyl)amino)-2-((S)-2-oxo-3-((6-(trifluoromethyl)quinazolin-4-yl)amino)pyrrolidin-1-yl)cyclohexyl)amino)-3-oxopropoxy)ethyl)amino)-4-oxobutoxy)cyclohexyl)oxy)ethyl)-1-methyl-5-oxo-2-(pyridin-3-yl)pyrrolidine-3-carboxamide]	47%	9.2515	13.7 µM	95%	–	–
CN1C(=O)C[C@H](C(=O)NCCO[C@H]2CC[C@H](OCCCC(=O)N[C@H]3CC[C@H](C(=O)N[C@@H]4C[C@H](NC(C)(C)C)CC[C@@H]4N4CC[C@H](Nc5ncnc6ccc(C(F)(F)F)cc56)C4=O)CC3)CC2)[C@H]1c1cccnc1 [Example 10, (2S,3S)-N-(2-(((1R,4S)-4-(4-(((1R,4R)-4-(((1R,2S,5R)-5-(tert-Butylamino)-2-((S)-2-oxo-3-((6-(trifluoromethyl)quinazolin-4-yl)amino)pyrrolidin-1-yl)cyclohexyl)carbamoyl)cyclohexyl)amino)-4-oxobutoxy)cyclohexyl)oxy)ethyl)-1-methyl-5-oxo-2-(pyridin-3-yl)pyrrolidine-3-carboxamide]	94.9%	9.199	≥ 33.3 µM	–	48%	–
CC(C)N(C)[C@@H]1CC[C@H](N2CC[C@H](Nc3ncnc4ccc(C(F)(F)F)cc34)C2=O)[C@H](NC(=O)[C@H]2CC[C@@H](NC(=O)CCOCCOCCNC(=O)CCNC(=O)[C@H]3CC(=O)N(C)[C@@H]3c3cccnc3)CC2)C1 [Example 16, (2S,3S)-N-(3-((2-(2-(3-(((1S,4s)-4-(((1R,2S,5R)-5-(Isopropyl(methyl)amino)-2-((S)-2-oxo-3-((6-(trifluoromethyl)quinazolin-4-yl)amino)pyrrolidin-1-yl)cyclohexyl)carbamoyl)cyclohexyl)amino)-3-oxopropoxy)ethoxy)ethyl)amino)-3-oxopropyl)-1-methyl-5-oxo-2-(pyridin-3-yl)pyrrolidine-3-carboxamide]	74%	9.287	≥ 100 µM	47.8%	–	–
CC(C)N(C)[C@@H]1CC[C@H](N2CC[C@H](Nc3ncnc4ccc(C(F)(F)F)cc34)C2=O)[C@H](NC(=O)[C@H]2CC[C@@H](NC(=O)CCCC(=O)NCCCOCCCNC(=O)[C@H]3CC(=O)N(C)[C@@H]3c3cccnc3)CC2)C1 [Example 18, N^1-((1S,4s)-4-(((1R,2S,5R)-5-(Isopropyl(methyl)amino)-2-((S)-2-oxo-3-((6-(trifluoromethyl)quinazolin-4-yl)amino)pyrrolidin-1-yl)cyclohexyl)carbamoyl)cyclohexyl)-N^5-(3-(3-((2S,3S)-1-methyl-5-oxo-2-(pyridin-3-yl)pyrrolidine-3-carboxamido)propoxy)propyl)glutaramide]	88%	9.0895	≥ 100 µM	44.9%	–	–
CC(C)N(C)[C@@H]1CC[C@H](N2CC[C@H](Nc3ncnc4ccc(C(F)(F)F)cc34)C2=O)[C@H](NC(=O)[C@H]2CC[C@H](NC(=O)CCCC(=O)NCCCOCCCNC(=O)[C@H]3CC(=O)N(C)[C@@H]3c3cccnc3)CC2)C1 [Example 19, N1-((1R,4r)-4-(((1R,2S,5R)-5-(Isopropyl(methyl)amino)-2-((S)-2-oxo-3-((6-(trifluoromethyl)quinazolin-4-yl)amino)pyrrolidin-1-yl)cyclohexyl)carbamoyl)cyclohexyl)-N5-(3-(3-((2S,3S)-1-methyl-5-oxo-2-(pyridin-3-yl)pyrrolidine-3-carboxamido)propoxy)propyl)glutaramide]	59%	9.19	≥ 100 µM	34.2%	–	–
CN1C(=O)C[C@H](C(=O)NCCOCCOCCOCCC(=O)N[C@H]2CC[C@@H](C(=O)N[C@@H]3C[C@H](NC(C)(C)C)CC[C@@H]3N3CC[C@H](Nc4ncnc5ccc(C(F)(F)F)cc45)C3=O)CC2)[C@H]1c1cccnc1 [Example 23, (2S,3S)-N-(2-(2-(2-(3-(((1S,4s)-4-(((1R,2S,5R)-5-(tert-Butylamino)-2-((S)-2-oxo-3-((6-(trifluoromethyl)quinazolin-4-yl)amino)pyrrolidin-1-yl)cyclohexyl)carbamoyl)cyclohexyl)amino)-3-oxopropoxy)ethoxy)ethoxy)ethyl)-1-methyl-5-oxo-2-(pyridin-3-yl)pyrrolidine-3-carboxamide]	90.7%	9.2166	85.2 µM	50.5%	–	–
CC(C)N(C)[C@@H]1CC[C@H](N2CC[C@H](Nc3ncnc4ccc(C(F)(F)F)cc34)C2=O)[C@H](NC(=O)CCOCCOCCOCCOCCOCCNC(=O)[C@H]2CC(=O)N(C)[C@@H]2c2cccnc2)C1 [Example 40, (2S,3S)-N-(18-(((1R,2S,5R)-5-(Isopropyl(methyl)amino)-2-((S)-2-oxo-3-((6-(trifluoromethyl)quinazolin-4-yl)amino)pyrrolidin-1-yl)cyclohexyl)amino)-18-oxo-3,6,9,12,15-pentaoxaoctadecyl)-1-methyl-5-oxo-2-(pyridin-3-yl)pyrrolidine-3-carboxamide]	–	9.4525	≥ 10 µM	–	–	24.7%
CC(C)N(C)[C@@H]1CC[C@H](N2CC[C@H](Nc3ncnc4ccc(C(F)(F)F)cc34)C2=O)[C@H](NC(=O)CCOCCOCCOCCOCCOCCOCCNC(=O)[C@H]2CC(=O)N(C)[C@@H]2c2cccnc2)C1 [Example 41, (2S,3S)-N-(21-(((1R,2S,5R)-5-(isopropyl(methyl)amino)-2-((S)-2-oxo-3-((6-(trifluoromethyl)quinazolin-4-yl)amino)pyrrolidin-1-yl)cyclohexyl)amino)-21-oxo-3,6,9,12,15,18-hexaoxahenicosyl)-1-methyl-5-oxo-2-(pyridin-3-yl)pyrrolidine-3-carboxamide]	–	9.3615	≥ 10 µM	–	–	20.1%
CC(C)N(C)[C@@H]1CC[C@H](N2CC[C@H](Nc3ncnc4ccc(C(F)(F)F)cc34)C2=O)[C@H](NC2CCN(C(=O)CCOCCOCCOCCOCCNC(=O)[C@H]3CC(=O)N(C)[C@@H]3c3cccnc3)CC2)C1 [Example 69, (2S,3S)-N-(15-(4-(((1R,2S,5R)-5-(Isopropyl(methyl)amino)-2-((S)-2-oxo-3-((6-(trifluoromethyl)quinazolin-4-yl)amino)pyrrolidin-1-yl)cyclohexyl)amino)piperidin-1-yl)-15-oxo-3,6,9,12-tetraoxapentadecyl)-1-methyl-5-oxo-2-(pyridin-3-yl)pyrrolidine-3-carboxamide]	98.59%	9.321	–	–	–	–
